Columns and labels:
[1] = tested on: APP/PS1 Tg mice; assay: GA vaccination of APP/PS1 Tg mice: Morris water maze; format: in vivo, mouse; settings: five weeks after first GA injection, vs untreated Tg mice
[2] = tested on: APP/PS1 Tg mice; assay: GA vaccination of APP/PS1 Tg mice: hippocampal histology (plaques, microglia, neurons, neurogenesis); format: in vivo, mouse
Procedure: (xlviii) Glatiramer acetate vaccination. Each mouse was subcutaneously injected five times with a total of 100 μg of glatiramer acetate (GA (TV-5010), MW 13.5-18.5 kDa, average 16 kDa, Teva Pharmaceutical Industries Ltd., Petach Tikva, Israel), emulsified in 200 μl PBS×1, from experimental day 0 until day 24, twice during the first week and once a week thereafter.
(l) Administration of BrdU and tissue preparation. BrdU was dissolved by sonication in PBS and injected i.p. into each mouse (50 mg/kg body weight; 1.25 mg BrdU in 200 μl PBS×1). Starting from experimental day 22 after the first GA vaccination, BrdU was injected i.p. twice daily, every 12 h for 2.5 days, to label proliferating cells. Three weeks after the first BrdU injection the mice were deeply anesthetized and perfused transcardially, first with PBS and then with 4% paraformaldehyde. The whole brain was removed, postfixed overnight, and then equilibrated in phosphate-buffered 30% sucrose. Free-floating 30-μm sections were collected on a freezing microtome (Leica SM2000R) and stored at 4° C. prior to immunohistochemistry.
For immunohistochemistry, tissue sections were treated with a permeabilization/blocking solution containing 10% FCS, 2% bovine serum albumin, 1% glycine, and 0.05% Triton X-100 (Sigma-Aldrich, St. Louis). Tissue sections were stained overnight at 4° C. with specified combinations of the following primary antibodies: rat anti-BrdU (1:200; Oxford Biotechnology, Kidlington, Oxfordshire, UK), goat anti-DCX [doublecortin] (1:400; Santa Cruz Biotechnology), and mouse anti-NeuN [neuronal nuclear protein] (1:200; Chemicon, Temecula, Calif.). Secondary antibodies were FITC-conjugated donkey anti-goat, Cy-3-conjugated donkey anti-mouse, and Cy-3- or Cy-5-conjugated donkey anti-rat (1:200; Jackson ImmunoResearch, West Grove, Pa.). For labeling of microglia we used either CD11b (MAC1; 1:50; BD-Pharmingen) or FITC-conjugated Bandeiraea simplicifolia isolectin B4 (IB4, 1:50; Sigma-Aldrich, Rehovot). To detect expression of cell-surface MHC-II proteins we used anti-MHC-II Abs (rat, clone IBL-5/22; 1:50; Chemicon, Temecula, Calif.). To detect expression of human Aβ we used anti-Aβ (human amino-acid residues 1-17) (mouse, clone 6E10, Chemicon, Temecula, Calif.). Expression of IGF-I was detected by goat anti-IGF-I Abs (1:20; R&D Systems). Expression of TNF-α was detected by goat anti-TNF-α Abs (1:100; R&D Systems). T cells were detected with anti-CD3 polyclonal Abs (rabbit, 1:100; DakoCytomation, Calif.). Propidium iodide (1 μg/ml; Molecular Probes, Invitrogen, Carlsbad, Calif.) was used for nuclear staining.
For in-vivo experiments, the number of Aβ^+ plaques and CD11b^+/IB-4^+ microglia in the hippocampus were counted at 300-μm intervals from 6-8 coronal sections (30 μm) from each mouse. Neurogenesis in the DG was evaluated by counting of premature neurons (DCX^+), proliferating cells (BrdU^+), and newly formed mature neurons (BrdU^+/NeuN^+) in six coronal sections (30 μm) from each mouse. Specificity of BrdU^+/NeuN^+ co-expression was assayed using the confocal microscope (LSM 510) in optical sections at 1-μm intervals/. Cell counts, numbers of Aβ^+ plaques, plaque areas, and intensity of NeuN staining per unit area in the DG were evaluated automatically using Image-Pro Plus 4.5 software (Media Cybernetics).

glatiramer acetate [GA] was tested, and the “MWM performance (spatial learning/memory)” value [1] was “superior to that of the untreated Tg mice”, the “number of Aβ plaques in hippocampus” value ([2]; 6 weeks later, vs untreated Tg mice) was “significantly fewer plaques” and the “newly formed mature neurons (BrdU^+/NeuN^+)” value ([2]; compared to non-Tg littermates) was “similar”. The “DCX^+ cells in dentate gyrus” value ([2]; relative to non-Tg littermates) was “slightly but significantly more”, the “BrdU^+ cells in dentate gyrus” value ([2]; vs untreated Tg mice) was “significantly more BrdU^+ cells” and the “CD11b^+ microglia” value ([2]; vs untreated Tg mice) was “significantly fewer CD11b^+ microglia”. For the same substance, the “area occupied by the plaques” value ([2]; vs untreated Tg mice) was “significantly smaller” and the “staining for NeuN” value ([2]; vs untreated Tg mice) was “significantly more intense staining for NeuN”.
